Legend:
[1] = system: human FXRα promoter 2 (FXRα3/α4); assay: Luciferase reporter assay, FXRα promoter 2, in HepG2 cells; assay type: cell-based
Description: (§1) The upstream promoter 1 and downstream promoter 2 regions of the human FXRα gene were cloned into the pGL3-basic luciferase reporter construct and transfected into HepG2 cells in a 96-well format or primary hepatocytes in a 24-well format using a luciferase system (Promega). A β-galactosidase reporter construct was used as a transfection control. Promoters 1 and 2 of the human FXRα gene were PCR amplified and cloned into the pGL3-basic luciferase reporter (Promega). Point mutations were introduced using the site-directed mutagenesis kit (Stratagene).
To examine the signalling pathways through which LNFPIII regulates FXRα activity, the activities of luciferase reporters driven by upstream (promoter 1) or downstream (promoter 2) regulatory regions were examined in HepG2 cells (human hepatoma cells). Reporters driven by a 2 kb fragment of human FXRα promoter 1 or a 0.13 kb fragment of human FXRα promoter 2 were transfected into HepG2 cells. Twenty-four hours after transfection, cells were treated with or without LNFPIII (20 μg/ml) or SEA (2 μg/ml) for an additional 24 hours.
To gain insight into the region of promoter 2 responsible for promoter activation, the minimal LNFPIII responsive region was determined through a series of promoter deletion mutants.

livers of mice = details: mouse, in vivo
FXRα−/− mice = assay: LNFPIII treatment of FXRα−/− mice (liver mRNA, hepatic triglyceride, serum AST/ALT); assay type: in vivo
Description: Male C57BL/6J mice (8-10 weeks of age) were purchased from The Jackson Laboratory (Bar Harbor, Me.). FXR α−/− mice (both in the C57BL/6J background) were obtained from The Jackson Laboratory. All animal studies were approved by the Harvard Medical Area Standing Committee on Animals.
(§2) Male C57BL/6J mice (8-10 weeks of age) were placed on a high-fat, high carbohydrate diet (F3282, Bio-Serv) for the duration for the experiments. After 6 weeks of the special diet, mice were intraperitoneally injected 2 times per week with 25 μg of dextran (vehicle) or 25 μg of LNFPIII conjugated with dextran (LNFPIII-dex). A second cohort was treated with 0.9% NaCl or SEA dissolved in 0.9% NaCl (25 μg/mouse/twice a week). Metabolic studies started 4 weeks after LNFPIII or SEA treatment and were conducted after 6 hrs of fasting. Animals were sacrificed at the 6th week of treatment for serum and tissue collection. Most experiments were repeated in two cohorts (n=4-7/treatment). Body weight and food intake were monitored weekly.
Furthermore, to determine whether FXRα mediated the effects of LNFPIII on lipogenesis and fatty acid oxidation, primary hepatocytes were isolated from wild type or FXRα^−/− mice, cultured, and tested for de novo lipogenesis and fatty acid oxidation.

[2] = system: Male C57BL/6J mice on a high-fat, high carbohydrate diet; assay: High fat diet-induced steatosis and liver function in mice (histology, liver triglycerides, circulating AST/ALT); assay type: in vivo; details: vs vehicle
Description: as §2
Circulating levels of ALT and AST, markers of overall liver function, were measured using commercial kits as described in Liu et al. (JBC 2011; 286:1237-47).
The Dana Farber/Harvard Cancer Center Research Pathology Cores provided all histological services and preliminary assessments by a pathologist. Briefly, tissues were collected from animals and fixed in 10% formalin (liver) for 48 hours. Fixed samples were rinsed in PBS and sent to the histology core to be paraffin embedded, sectioned, and stained with hematoxylin and eosin according to standard procedures. A staff pathologist analyzed the samples for signs of inflammation, fatty liver, fibrosis, and other pathologies associated with the liver.
In this example, the ability of LNFPIII or SEA to prevent high fat diet-induced steatosis and preserve liver function was examined. Mice were injected with either vehicle (dextran, 25 μg), LNFPIII conjugated to dextran (25 μg), or SEA twice a week (n=5 for each group) as described in the Methods section.
To determine whether overall liver function was affected by LNFPIII treatment, circulating levels of AST and ALT were also examined.

Erk [3] = assay: Immunoblot of phospho-Erk in liver lysates of treated mice; assay type: in vivo; details: FIG. 3f
Description: FIG. 3F (top panel) is an immunoblot for levels of phosphor-Erk (p-Erk) and total Erk (t-Erk) in liver lysates prepared from vehicle or LNFPIII treated mice (n=5, showing representative 3 samples/treatment). Actin levels served as a loading control. FIG. 3F (bottom panel) is a bar graph depicting the densitometric analysis of the immunoblot from FIG. 3F (top panel). Results are presented as mean±SEM. *p<0.05.
(§3) For Western blot analyses, tissue and cell lysates were prepared in lysis buffer (20 mM Tris-HCl, 100 mM NaCl, 1 mM EDTA, NP-40, glycerol, PMSF, and DTT) in the presence of protease and phosphatase inhibitors. The four FXRα (NR1H4) isoforms were based on previous reports, which were originally designated as FXRα1/α2 and FXRβ1/β2 (Huber et al., Gene 2002; 290:35-43; Zhang et al., JBC 2003; 278:104-10). The latter were renamed FXRα3/α4 to avoid confusion with rodent FXRβ (NR1H5) (Lefebvre et al., Physiol Rev 2009; 89:147-91).

[4] = system: primary mouse hepatocytes; details: PD98059 1 hour prior to overnight LNFPIII, FIG. 3i
[5] = system: primary mouse hepatocytes
Erk [6] = assay: Immunoblot of phospho-Erk in primary hepatocytes; assay type: cell-based, mouse; details: PD98059 1 hour prior to overnight LNFPIII, FIG. 3g
Description: FIG. 3G (left panel) is an immunoblot for levels of phospho-Erk (p-Erk) and total Erk (t-Erk) in primary hepatocytes treated with vehicle, LNFPIII, PD90859, or LNFPIII+PD98059. Cells were pretreated with PD98059 for 1 hour prior to overnight LNFPIII treatment. Actin levels served as a loading control. FIG. 3G (right panel) is a bar graph depicting the densitometric analysis of the immunoblot from FIG. 3G (left panel). Results are presented as mean±SEM.
FIG. 3H is an immunoblot for levels of p-Erk and t-Erk in primary hepatocytes treated with vehicle, SEA, or SEA+PD98059. Cells were pretreated with PD98059 for 1 hour prior to overnight SEA treatment. Actin levels served as a loading control.
as §3

[7] = system: human FXRα promoter 1 (FXRα1/α2); assay: Luciferase reporter assay, FXRα promoter 1, in HepG2 cells; assay type: cell-based; details: with or without LNnT, p<0.05, FIG. 4b
Description: HepG2 cells, obtained from ATCC (#HB-8065), were cultured in Eagle's minimal essential media supplemented with non-essential amino acids, L-glutamine, sodium pyruvate, sodium bicarbonate, 10% fetal bovine serum, and antibiotics.
as §1
Both human and mouse FXRα contain two major promoters (FIG. 2c). […] To examine the signalling pathways through which LNFPIII regulates FXRα activity, the activities of luciferase reporters driven by upstream (promoter 1) or downstream (promoter 2) regulatory regions were examined in HepG2 cells (human hepatoma cells). Reporters driven by a 2 kb fragment of human FXRα promoter 1 or a 0.13 kb fragment of human FXRα promoter 2 were transfected into HepG2 cells. Twenty-four hours after transfection, cells were treated with or without LNFPIII (20 μg/ml) or SEA (2 μg/ml) for an additional 24 hours.

[8] = FIG. 2d, primary hepatocytes treated for 24 hours
[9] = FIG. 2d, primary hepatocytes treated for 24 hours, p<0.05
[10] = high fat diet mice, p<0.05, FIG. 1d/1e

Compound: lacto-N-fucopentaose III [LNFPIII]
- β-oxidation gene expression in primary hepatocytes (primary hepatocytes): did not affect
- FXRα1/α2 mRNA expression (primary hepatocytes; [8]): remained unchanged
- LXRα mRNA expression (primary hepatocytes; [8]): remained unchanged
- BSEP transcripts (primary hepatocytes; [9]): significantly upregulated
- OATP transcripts (primary hepatocytes; [9]): significantly upregulated
- PLTP transcripts (primary hepatocytes; [9]): significantly upregulated
- SHP transcripts (primary hepatocytes; [9]): significantly upregulated
- FXRα3/α4 transcripts (primary hepatocytes; FIG. 2d, primary hepatocytes treated for 24 hours, vs vehicle, p<0.05): significantly upregulated
- activation of FXRα promoter 2 reporter with mutated overlapping AP-1 sites (site 3) ([1]; HepG2, site-directed mutagenesis, FIG. 3d, 3e): two overlapping AP-1 sites were required for the activation
- ACC1/2 mRNA in livers (livers of mice): significantly reduced
- Arg1 (M2 marker) mRNA in liver tissue (livers of mice): significantly higher levels
- F4/80 mRNA in liver tissue (livers of mice): significantly lower levels
- FAS mRNA in livers (livers of mice): significantly reduced
- IL-1β mRNA in liver tissue (livers of mice): unchanged
- IL-6 mRNA in liver tissue (livers of mice): significantly lower levels
- Mgl1 (M2 marker) mRNA in liver tissue (livers of mice): significantly higher levels
- SCD1 mRNA in livers (livers of mice): significantly reduced
- SREBP-1c mRNA in livers (livers of mice): significantly reduced
- β-oxidation gene expression in livers (livers of mice): did not affect
- reduction in serum ALT concentration, wild type vs FXR−/− mice (FXRα−/− mice; FIG. 2i, p<0.05): required FXRα expression
- reduction in serum AST concentration, wild type vs FXR−/− mice (FXRα−/− mice; FIG. 2i, p<0.05): required FXRα expression
- reduction in hepatic triglyceride content, wild type vs FXR−/− mice (FXRα−/− mice; FIG. 2h, p<0.05): required FXRα expression
- Acc1 mRNA expression in FXRα−/− mice (FXRα−/− mice; livers, FIG. 2f): did not reduce
- Acc2 mRNA expression in FXRα−/− mice (FXRα−/− mice; livers, FIG. 2f): did not reduce
- Fas mRNA expression in FXRα−/− mice (FXRα−/− mice; livers, FIG. 2f): did not reduce
- Scd1 mRNA expression in FXRα−/− mice (FXRα−/− mice; livers, FIG. 2f): did not reduce
- Srebp mRNA expression in FXRα−/− mice (FXRα−/− mice; livers, FIG. 2f): did not reduce
- high fat diet-induced hepatic lipid accumulation (histology) ([2]; 25 μg i.p. twice a week, 6 weeks, FIG. 1a): less high fat diet-induced hepatic lipid accumulation
- levels of triglycerides in livers ([2]; 25 μg twice a week, p<0.05, FIG. 1b): significantly lower levels
- circulating levels of ALT [2, 10]: significantly reduced levels
- circulating levels of AST [2, 10]: significantly reduced levels
- Erk phosphorylation in liver (Erk [3]): increased
- ability of LNFPIII to increase β-oxidation in presence of PD98059 [4]: dependent on Erk activity and FXRα
- ability of LNFPIII to suppress lipid synthesis in presence of PD98059 [5]: dependent on Erk activity and FXRα
- lipogenesis in primary hepatocytes ([5]; 20 μg/ml, 24 hours): significantly suppressed

Compound: COc1cccc(-c2cc(=O)c3ccccc3o2)c1N [PD98059, reference compound]
- activation of Erk in response to LNFPIII in presence of PD98059 (Erk [6]): completely abolished
- responsiveness of the FXRα promoter 2 to LNFPIII in presence of PD98059 [1]: completely abolished
- ability of LNFPIII to increase β-oxidation in presence of PD98059 [4]: completely abolished
- ability of LNFPIII to suppress lipid synthesis in presence of PD98059 [5]: completely abolished

Compound: CC(=O)N[C@H]1[C@H](O[C@H]2[C@@H](O)[C@@H](CO)O[C@@H](O[C@H]3[C@H](O)[C@@H](O)C(O)O[C@@H]3CO)[C@@H]2O)O[C@H](CO)[C@@H](O[C@@H]2O[C@H](CO)[C@H](O)[C@H](O)[C@H]2O)[C@@H]1O (mixture of isomers) [LNnT, lacto-N-neotetraose]
- activity of the FXRα1/α2 promoter in a luciferase assay [7]: significantly increased
- lipogenesis in cultured primary hepatocytes [5]: blocked lipogenesis in cultured primary hepatocytes in a dose-dependent manner
